# Data published in US20260224538A1 (Purdue Research Foundation, priority 2023, published 2026).
# Columns and labels:
# Type in all cases: biochemical
# [1] = biological target: T1, transthyretin fragment peptide (TTR81-127) (Homo sapiens, UniProt P02766); assay: ThT fluorescence assay of TTR81-127 fibril formation; settings: for remaining activity at 100 µM: compounds at 100 μM, TTR81-127 10 μM, control 0.25% DMSO, read-out: ThT TTR81-127 (%), maximum thioflavin T (ThT) intensity in percentage
# T1 construct: TTR fragment 81-127 was obtained from AnaSpec; purchased AnaSpec; host or cells: synthetic peptide
# Procedure: (§1) Thioflavin-T (ThT) fluorescence assays. Thioflavin-T (ThT) fluorescence assays were used to monitor fibril formation of recombinant Ap (fragments 1-40 and 1-42), recombinant α-syn, recombinant tau isoform 2N4R, synthetic IAPP, and synthetic TTR peptides treated with BTA and its derivatives. The IAPP ThT assay was performed in 10 mM PBS (pH 7.4) at a final concentration of 10 μM for both IAPP and ThT as published previously. Aβ fragments 1-40 and 1-42 were tested at 7 μM in 10 mM of PBS using ThT at a final concentration of 20 μM. Kinetics of α-syn fibrillization were performed as published previously.^36-37 TTR fragment kinetics of fibril formation were assessed at 10 μM in 100 mM sodium acetate buffer supplemented with 100 mM KCl and 1 mM ethylenediaminetetraacetic acid (EDTA) (pH 4) with 20 μM ThT. The fluorescence emission experiments were performed with the excitation and emission wavelengths set at 440 and 485 nm, respectively, with a Synergy HT multi-mode microplate reader (BioTek, Winooski, VT). Samples were measured in three replicates, and the experiments were repeated three times using at least two different stock solutions. For each time point, arbitrary units of fluorescence were calculated from the mean values normalized against the maximum value in each completed assay. The lag time for each condition was calculated as previously described. All results contained in histograms were presented as mean±SEM. Data were analyzed by the one-way analysis of variance with Dunnett's multiple comparisons between controls and compounds. Differences were considered statistically significant at p<0.05.
# α-synuclein (α-syn) = biological target: T2, α-synuclein (α-syn) (Homo sapiens, UniProt P37840); assay: Thioflavin-T (ThT) fluorescence assay of α-syn fibril formation; settings: compounds at 100 μM, α-syn 6.25 μM, control 0.25% DMSO; for remaining activity at 100 µM: read-out: ThT a-Syn (%), maximum thioflavin T (ThT) intensity in percentage
# T2 construct: purchased rPeptide
# Procedure: as §1
# (§2) Compounds with the highest anti-fibrillary activity were tested at 3.125, 6.25, 12.5, 25, 50, and 100 μM to obtain dose-response curves with prepared α-syn and 2N4R tau at 6.25 μM and 6 μM, respectively. Compounds were tested with α-syn using a previously published procedure. Concerning the tau (isoform 2N4R) kinetics of fibril formation, measurements of ThT fluorescence were performed with a solution of the protein diluted to a final concentration of 6 μM in PBS (pH 7.4) supplemented with 1.5 μM heparin, 20 μM ThT, 2.5 mM DTT, and 100 μM compound. Aliquots of the diluted protein solution (100 μL each) were pipetted into the wells of a 96-well plate, and a Teflon ball was added to each well. The plate was incubated at 37° C. with constant shaking at 1,000 rpm in a Tecan Spark plate reader. ThT fluorescence was measured every 15 minutes with excitation and emission wavelengths of 440 nm and 480 nm, and the data were plotted using GraphPad Prism.
# TTR101-125 = biological target: T3, TTR101-125 (Homo sapiens, UniProt P02766); assay: ThT fluorescence assay of TTR101-125 fibril formation
# T3 construct: TTR fragments 1-25, 26-50, 51-75, 76-100, 81-105, 101-125, and 101-125 were obtained from GenScript; purchased GenScript; host or cells: synthetic peptide
# Procedure: as §1
# tau isoform 2N4R = biological target: T4, tau isoform 2N4R (Homo sapiens, UniProt P10636); assay: ThT kinetics of tau isoform 2N4R fibril formation; settings: tau 6 μM, compound 100 μM
# T4 construct: made in house; host or cells: E. coli BL21(DE3)
# T4 sequence (P10636 1-441 isoform P10636-8): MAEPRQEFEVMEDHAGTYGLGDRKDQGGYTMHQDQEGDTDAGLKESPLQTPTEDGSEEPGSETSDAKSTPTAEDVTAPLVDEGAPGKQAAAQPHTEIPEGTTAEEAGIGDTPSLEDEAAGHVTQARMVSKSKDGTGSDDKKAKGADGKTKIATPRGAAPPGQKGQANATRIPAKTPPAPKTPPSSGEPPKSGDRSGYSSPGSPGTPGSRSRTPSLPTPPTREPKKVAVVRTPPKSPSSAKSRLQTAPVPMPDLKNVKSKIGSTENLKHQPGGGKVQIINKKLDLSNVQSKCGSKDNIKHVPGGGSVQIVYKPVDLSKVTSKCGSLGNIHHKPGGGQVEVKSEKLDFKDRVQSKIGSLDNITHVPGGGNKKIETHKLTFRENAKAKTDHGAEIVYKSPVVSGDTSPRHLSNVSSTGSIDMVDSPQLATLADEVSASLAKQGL
# Procedure: The bacterial expression plasmid consisting of the vector pRK172 carrying a cDNA encoding the human Tau 2N4R isoform was obtained from Dr. David Eliezer (Weill Cornell Medicine, New York, NJ). For protein expression, E. coli BL21(DE3) cells were transformed with the plasmid and grown in LB media supplemented with ampicillin (100 μg/mL). Protein over-expression was induced by the addition of 1 mM IPTG for 4 hours at 37° C., and cells were pelleted by centrifugation at 6,000 g for 15 minutes at 4° C. The cells were resuspended in lysis buffer (20 mM MES, 400 mM NaCl, 0.2 mM MgCl2, 1 mM EGTA, protease inhibitor cocktail (P8340, Sigma Aldrich), 0.25 mg/mL lysozyme, and 1 μg/mL DNase 1, pH 6.8) and lysed by a French press cell disruptor at 4° C., after which the lysate was boiled for 20 minutes. Denatured proteins were pelleted by centrifugation at 30,000 g for 30 minutes at 4° C., and the supernatant was dialyzed overnight against cation exchange buffer (20 mM MES, 50 mM NaCl, 1 mM MgCl2, 1 mM EGTA, 2 mM DTT, 0.1 mM PMSF, pH 6.8). The dialysate was loaded onto a HiPrep SP HP column, and proteins were eluted with a linear gradient ranging from 50 mM to 1 M NaCl. Fractions containing tau isoform 2N4R were pooled, and the resulting protein solution was dialyzed against PBS (pH 7.4) and stored at −80° C.
# as §2
# [2] = compound 100 μM, molar ratio 1:10
remaining activity at 100 µM [1] [%],"ThT a-Syn (%), maximum thioflavin T (ThT) intensity in percentage (α-synuclein (α-syn)) [%]",remaining activity at 100 µM (α-synuclein (α-syn)) [%],SMILES,"TTR81-127 fibril formation (ThT) [1, 2]","TTR101-125 fibril formation (ThT) (TTR101-125; compound 50 μM, molar ratio 1:5)",TTR101-125 fibril formation (ThT) (TTR101-125; [2]),production of tau isoform 2N4R fibrils (ThT kinetic aggregation curves) (tau isoform 2N4R)
59.7 ± 2.6,45.3 ± 12.9,45.3 ± 12.9,"O=C(CCl)Nc1nsc2ccc([N+](=O)[O-])cc12 [Compound 11, 2-chloro-N-(5-nitro-1,2-benzothiazol-3-yl)acetamide]",,,,
82.6 ± 6,,> 100,"O=[N+]([O-])c1ccc2snc(Nc3nc(Cl)nc(Cl)n3)c2c1 [Compound 6, N-(4,6-dichloro-1,3,5-triazin-2-yl)-5-nitro-1,2-benzothiazol-3-amine]",,,,
69 ± 0.1,,> 100,O=C(Cc1cccs1)Nc1nsc2ccc([N+](=O)[O-])cc12 [Compound 9],,,,
95.2 ± 1.2,,> 100,"O=C(Cc1ccccc1)Nc1nsc2ccc([N+](=O)[O-])cc12 [Compound 8, N-(5-nitro-1,2-benzothiazol-3-yl)-2-phenylacetamide]",,,,
,,,"CC(=O)c1ccc(NC(=S)Nc2ccc(-c3nc4ccccc4s3)cc2)cc1 [Compound 2, 1-(4-acetylphenyl)-3-[4-(1,3-benzothiazol-2-yl)phenyl]thiourea]","to a lesser extent, compound 2 reduced fibril formation",weak in inhibiting TTR101-125 fibril formation,"to a lesser extent, compound 2 reduced fibril formation",
90.2 ± 2.7,55.6 ± 3.2,55.6 ± 3.2,"CC(=O)Nc1nsc2ccc([N+](=O)[O-])cc12 [Compound 10, N-(5-nitro-1,2-benzothiazol-3-yl)acetamide]",,,,reduced the production of tau isoform 2N4R fibrils
> 100,,> 100,"O=[N+]([O-])c1ccc2snc(Nc3ncnc(Cl)n3)c2c1 [Compound 7, N-(4-chloro-1,3,5-triazin-2-yl)-5-nitro-1,2-benzothiazol-3-amine]",,,,
63 ± 17.4,,> 100,"CS(=O)(=O)N(c1nsc2ccc([N+](=O)[O-])cc12)S(C)(=O)=O [Compound 12, N-methanesulfonyl-N-(5-nitro-1,2-benzothiazol-3-yl)methanesulfonamide]",,,,
